Results taken from patent US9072729B2, “Method for treating fibrosis and cancer with imidazolium and imidazolinium compounds” (Agency for Science, Technology and Research, priority 2008, dated 2015).

Legend:
HLE cells = assay: ROS determination in HLE cells (dihydroethidium); assay type: cell-based, human; settings: millimolar range, 24 hr
Description: FIG. 27. High dose DBZIM induced ROS production in HLE cells. HLE cells were grown in 96-Well plate and treated by DBZIM for 24 hr. The cells were then fixed and stained by DHE for quantification of ROS generation. The images ware acquired and analyzed using ArrayScan VTI HCS reader (Thermal Scientific, PA, USA) and Target Activation BioApplication software.
Oxidative stress was measured using Cellomic HitKit (Thermo Scientific, IL, USA). HLE cells were treated with DBZIM for 24 hr, fixed and labeled by Dihydroethidium probe for quantitation of ROS generation and Hoechst dye for nuclear staining. The result was analyzed by Target Activation BioApplication software. The percentage of positive responding cells was plotted as the indication of ROS amount.

[1] = system: liver fibrosis induced by thioacetamide (TAA); assay: Liver fibrosis in mice induced by thioacetamide (TAA); assay type: in vivo, mouse; settings: TAA model, 500 mg/L in drinking water, 12 weeks
Description: FIG. 15 Effect of DBZIM and DPIM on liver fibrosis in mice. DBZIM was tested on mice induced by (a) liver toxin thioacetamide (TAA) or by (b) bile duct ligation (BDL). DPIM was also tested on mice induced by TAA (data not shown)) or by (c) bile duct ligation (BDL).
For the liver toxin thioacetamide (TAA) model, TAA was given by i.p. injection at 200 mg/kg body weight, 3 times per week, for 12 weeks, to induce hepatic fibrosis in mice. For the bile duct ligation model (BDL), adult mice were anesthetized with Ketamine (150 mg/kg)/Xylazine (10 mg/kg) via i.p. injection. An abdominal incision at the midline is made to expose the common bile conduct, which was then ligated using 5-0 silk suture. In the control animal, the bile duct is exposed, but not ligated. DBZIM or DPIM was provided to the mice in drinking water at concentrations from 1 to 1000 mg/liter. The collagen content in the fibrotic liver was assessed by the Sirius Red staining of the liver tissue sections.

U87 MG = assay: Proliferation assay (MTS), glioma U87 MG; assay type: cell-based; settings: Homo sapiens, U-87 MG, 48 h, determined at day 2
Description: FIG. 30. DBZIM inhibited cell proliferation in glioma cell line C6 (A) and U87 MG (C) and induced caspase 3/7 activity in C6 (B) and U87 MG (D). C6 or U87 cells were incubated with DBZIM of various concentrations for 48 hr for proliferation assay and 6 hr for caspase 3/7 activation assay. Proliferation was measured using MTS kit from Promega and expressed as relative cell proliferation with control group was normalized to 1. Caspase 3/7 activity was quantified using a kit from Promega and also expressed as relative caspase 3/7 activity of treated groups over control group.
(§1) Proliferation of Glioma cell lines: U87 MG and C6 under the treatment of DBZIM was examined using 3-(4,5-dimethylthiazol-2-yl)-5-(3-carboxymethoxyphenyl)-2-(4-sulfophenyl)-2H-tetrazolium (MTS) based proliferation assay kit (Promega, Wis., USA). MTS reagent was added to the control and treated cells (after 48 hr) directly and the absorbance signal was read at 490 nm using a Tecan Safire II plate reader.

phospho-Ser473-Akt = assay: Western blot of phosphorylated Akt; assay type: cell-based, human; settings: H1299, MCF-7, AGS and MKN28, IC50 concentration, 24 h to 72 h
Source text: FIG. 32. DBZIM inhibits phosphorylation of Akt. […] Time course inhibition of phosphorylated-AKT was shown by Western blot. β-actin was used as an internal loading control.
The Akt (also known as protein kinase B) kinase signaling pathway is activated in a variety of carcinomas of lung, breast, colon, and pancreatic and other tumor types through over-expressing the Akt protein itself and/or increasing phosphorylation of Akt. This study provided evidence that DBZIM is particularly efficacious in inducing apoptosis in AGS, H1299 and MCF-7 cells through a mechanism involving the reduction in the levels of the, phospho-AKT.

HepG2 cells = assay: Cell based caspase 3/7 and LDH assays, HepG2; parameters: species or system human; settings: HepG2, 6 hr
Description: FIG. 22. […] HLE or HepG2 cells were incubated with DBZIM of various concentrations for 6 hr, and assayed for caspase 3/7 activity and LDH releasing (expressed as % toxicity). DBZIM induced apoptosis as characterized by annexin V staining using flow cytometer in HLE (E) and HepG2 (F). Scatter plot and histogram gave the representative information on the cell population distribution while bar graphs quantified the percentage of apoptotic cells from the histogram. HLE and HepG2 cells were treated by DBZIM of various concentrations for 24 hr before harvesting for annexin V staining and flow cytometric analysis.
Capspase 3/7 activity and lactate dehydrogenase (LDH) release were measured by Fluorometric assays (Promega Corp., WI, USA). The HCC cells were cultured in 96-well plate and treated with DBZIM of various concentrations for 6 hr before assays. For caspase 3/7 assay, medium was removed and substrate buffer was added to lyse the cell and react with caspase 3/7 to give rise to fluorescence signal which was read at Ex=485 nm and Em=530 nm on a Tecan Safire II plate reader after 1 hr incubation. The caspase 3/7 activity of sample cells with the compound treatment was expressed as relative fold change after normalizing to the control cells. The LDH assay (indicative of membrane integrity) was performed using a Kit from Promega Corp according to manufactor's instructions.

IMR90 = assay: Cytotoxicity on normal (non-cancerous) lung cells; assay type: cell-based
Description: (§2) The IC50 value (determined at day 3) was 50 μM for H1299 (lung cancer); 50 μM for MCF-7 (breast cancer), and 40 μM for AGS gastric cancer at day 3 (Table 3).

H1299 = assay: Proliferation assay (MTS), lung cancer cell line; assay type: cell-based; settings: Homo sapiens, NCI-H1299, 72 h, determined at day 3
Description: as §1, §2

SMILES: [Br-].c1ccc(Cn2cc[n+](Cc3ccccc3)c2)cc1 [DBZIM, 1,3-bisbenzylimidazolium bromide]
- ROS generation (HLE cells): generated significant amount of ROS
- liver fibrosis (Sirius Red collagen) [1]: attenuated fibrosis
- IC50 (U87 MG): 2.1 mM
- active form of Akt (phospho-Ser473-Akt) (phospho-Ser473-Akt): appreciable down-regulation
- LDH release (HepG2 cells): least affected
- caspase 3/7 activity (HepG2 cells): enhanced
- cytotoxicity on normal lung cells (IMR90): much less cytotoxicity
- IC50 (H1299): 0.05 mM
